From ChEMBL document CHEMBL1128207 (J Med Chem, 1995)

How the values were obtained:
[1] = biological target: Progesterone receptor (Oryctolagus cuniculus) (UniProt P06186); test: Binding affinity towards rabbit progesterone receptor; not active
[2] = biological target: Progesterone receptor (Oryctolagus cuniculus) (UniProt P06186); test: Binding affinity towards rabbit progesterone receptor

Structure (SMILES)	IC50 [1]	IC50 [2] [nM]
COc1ccc(C(=O)N2CCCC(c3ccc(OC)cc3)=N2)cc1	Not Active	
O=C(c1ccccc1)N1CCCC(c2ccc(Cl)cc2)=N1	Not Active	
COc1ccc(C(=O)N2CCCC(c3ccccc3)=N2)cc1	Not Active	
COc1ccc(C2=NN(C(=O)c3ccc(Cl)cc3)CCC2)cc1	Not Active	
Cc1ccc(C(=O)N2CCCC(c3ccccc3)=N2)cc1	Not Active	
O=C(c1ccc(Cl)c(Cl)c1)N1CCCC(c2ccc(F)cc2)=N1		250
O=C(c1ccc(Cl)c(Cl)c1)N1CCCC(c2ccccc2)=N1		4000
O=C(c1cccc(Cl)c1)N1CCCC(c2ccccc2)=N1	Not Active	
O=C(c1cc(Cl)cc(Cl)c1)N1CCCC(c2ccc(Br)cc2)=N1		470
COc1ccc(C2=NN(C(=O)c3ccccc3)CCC2)cc1	Not Active	
COc1ccc(C2=NN(C(=O)c3ccc(C)cc3)CCC2)cc1	Not Active	
O=C(c1ccc(Cl)cc1)N1CCCC(c2ccc(Cl)cc2)=N1		4000
COc1ccc(C2=NN(C(=O)c3cccc(Cl)c3)CCC2)cc1	Not Active	
O=C(c1ccc([N+](=O)[O-])cc1)N1CCCC(c2ccc(F)cc2)=N1		1020
COc1ccc(C2=NN(C(=O)c3ccc(Br)cc3)CCC2)cc1	Not Active	
CC(C)(C)c1ccc(C(=O)N2CCCC(c3ccccc3)=N2)cc1	Not Active	
COc1ccc(C2=NN(C(=O)c3ccc(Cl)c(Cl)c3)CCC2)cc1	Not Active	
O=C(c1ccc([N+](=O)[O-])cc1)N1CCCC(c2ccc(Cl)cc2)=N1		270
O=C(c1ccc([N+](=O)[O-])cc1)N1CCCC(c2ccc(Cl)c(Cl)c2)=N1		100
COc1ccc(C2=NN(C(=O)c3ccc(C(C)(C)C)cc3)CCC2)cc1	Not Active	
O=C(c1ccccc1)N1CCCC(c2ccccc2)=N1	Not Active	
COc1ccc(C(=O)N2CCCC(c3ccc(Cl)cc3)=N2)cc1	Not Active	
Cc1ccc(C(=O)N2CCCC(c3ccc(Cl)cc3)=N2)cc1	Not Active	
CC(C)(C)c1ccc(C(=O)N2CCCC(c3ccc(Cl)cc3)=N2)cc1	Not Active	
O=C(c1ccc(Cl)cc1)N1CCCC(c2ccccc2)=N1	Not Active	
O=C(c1cccc(Cl)c1)N1CCCC(c2ccc(Cl)cc2)=N1	Not Active	
O=C(c1ccc(Br)cc1)N1CCCC(c2ccccc2)=N1	Not Active	
O=C(c1ccc(Cl)c(Cl)c1)N1CCCC(c2ccc(Cl)c(Cl)c2)=N1		100
